The values that follow come from PMC11823594, “Durlobactam in combination with β-lactams to combat Mycobacterium abscessus” (Antimicrobial Agents and Chemotherapy, 2024).

SMILES strings stand for the structures. Read-outs that look alike come from different tables or passages of the source. Bounds are passed on as bounds.

The target in one assay is PBP B (Mycobacterium abscessus, UniProt B1MP31). Description: Mass spectrometry of covalent adduct formation. The assay is classed as binding. The following applies: protein:drug 1:20, 2 h; mass accuracy ±5 Da; (−) = no change. The procedure:
Truncated sequences of LDT1-5, DDC, PBP B, and PBP-lipo (Δ1–41) were generated by Celtek Biosciences and cloned into the pET28(a) + vector with a tobacco etch virus (TEV) protease cleavage site before the start codon. Clones were transformed into Escherichia coli BL21 (DE3) and grown to an OD600 of 0.6–0.8. […] Cell pellets were collected and stored at −20°C overnight, then resuspended in a buffer containing 50 mM Tris (pH 8.0), 400 mM sodium chloride, and 1 mM Tris (2-carboxyethyl) phosphine hydrochloride (TCEP), followed by sonication and centrifugation. The supernatant was purified using a His Prep FF 16/10 column (GE Healthcare) and eluted with 500 mM imidazole. Eluted protein was dialyzed overnight at 4°C in a buffer with 50 mM Tris (pH 8.0), 150 mM sodium chloride, and 0.5 mM TCEP in the presence of His-tagged TEV protease. To remove the His tag, the mixture was passed over the His Prep FF 16/10 column again.
(§1) The purified proteins listed above were incubated at room temperature with β-lactams or BLIs at a molar ratio of 1:20 for 2 h. The reactions were then quenched with acetonitrile and diluted to 1 mL with 0.1% formic acid in water. Samples were analyzed using a quadrupole time-of-flight (Q-TOF) Waters Synapt-G2-Si electrospray ionization mass spectrometer (ESI-MS) and a Waters Acquity H class ultra-performance liquid chromatography (UPLC) system, equipped with a BEH C18 1.7 µm column (2.1 × 50 mm). The MS was tuned with the following settings: capillary voltage set at 3 kV, sampling cone at 35 V, source offset at 35, source temperature of 100°C, desolvation temperature of 500°C, cone gas flow rate at 100 L/h, desolvation gas flow rate at 800 L/h, and nebulizer set at 6.0. The mobile phases consisted of 0.1% formic acid in water and 0.1% formic acid in 100% acetonitrile, with gradient elution from 10% to 90% of […] over 11 min. The system’s mass accuracy was ±5 Da.

The target in assay [1] is T1, LDT2 (Mycobacterium abscessus, UniProt B1MMQ4). Description: Mass spectrometry of covalent adduct formation. It counts as binding. The following applies: protein:drug 1:20, 2 h; mass accuracy ±5 Da; (−) = no change. The protocol:
(§2) Truncated sequences of LDT1-5, DDC, PBP B, and PBP-lipo (Δ1–41) were generated by Celtek Biosciences and cloned into the pET28(a) + vector with a tobacco etch virus (TEV) protease cleavage site before the start codon. Clones were transformed into Escherichia coli BL21 (DE3) and grown to an OD600 of 0.6–0.8. Protein expression was induced with 0.25 mM isopropyl β-d-1-thiogalactopyranoside (IPTG) and incubated for 18 h at 18°C. Cell pellets were collected and stored at −20°C overnight, then resuspended in a buffer containing 50 mM Tris (pH 8.0), 400 mM sodium chloride, and 1 mM Tris (2-carboxyethyl) phosphine hydrochloride (TCEP), followed by sonication and centrifugation. The supernatant was purified using a His Prep FF 16/10 column (GE Healthcare) and eluted with 500 mM imidazole. Eluted protein was dialyzed overnight at 4°C in a buffer with 50 mM Tris (pH 8.0), 150 mM sodium chloride, and 0.5 mM TCEP in the presence of His-tagged TEV protease. To remove the His tag, the mixture was passed over the His Prep FF 16/10 column again.
as §1

The target in another assay is LDT3 (Mycobacterium abscessus, UniProt B1MHQ4). As to the kind of experiment: Mass spectrometry of covalent adduct formation. It counts as binding. The following applies: protein:drug 1:20, 2 h; mass accuracy ±5 Da; (−) = no change. The protocol: as §2, §1
Sequence of LDT3 (B1MHQ4 entry or part of it): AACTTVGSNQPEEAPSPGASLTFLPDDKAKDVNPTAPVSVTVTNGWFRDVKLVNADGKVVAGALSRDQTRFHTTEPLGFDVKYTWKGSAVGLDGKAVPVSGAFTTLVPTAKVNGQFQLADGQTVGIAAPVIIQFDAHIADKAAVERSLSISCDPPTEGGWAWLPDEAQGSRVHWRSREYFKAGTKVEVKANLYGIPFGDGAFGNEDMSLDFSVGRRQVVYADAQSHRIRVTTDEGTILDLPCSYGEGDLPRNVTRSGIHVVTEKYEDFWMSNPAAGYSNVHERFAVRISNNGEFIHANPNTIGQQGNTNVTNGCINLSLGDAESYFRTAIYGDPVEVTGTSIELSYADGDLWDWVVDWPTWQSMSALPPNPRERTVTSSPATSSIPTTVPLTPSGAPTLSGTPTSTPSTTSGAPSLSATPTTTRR
Another assay deals with LDT1 (Mycobacterium abscessus, UniProt B1MDC1). Description: Steady-state kinetics with nitrocefin (Ki,app). It counts as biochemical. The following applies: for Ki: Ki,app LDT1, nitrocefin at 5 × Km; for Ratio of fCss,avg to Ki,app, LDT1: in parentheses in Table 3. The procedure:
(§3) Steady-state kinetic studies were conducted using purified LDTs and PBPs (LDT1-5, PBP B, PBP-lipo, and DDC) as previously described ([20]). The assays were performed using a BioTek Synergy2 multimode reader in conjunction with Gen5 analysis software. Increasing concentrations of NCF (Δε482 = 17,400 M^⁻¹ cm^⁻¹) were used, while fixed concentrations of the LDTs and PBPs were monitored for changes in absorbance at 482 nm over a time period of 0 to 10 min. To determine reaction velocities, a 0.25 cm path length was employed. The steady-state kinetic parameters (Vmax, kcat, and Km) were obtained by fitting the data to the Henri-Michaelis-Menten equation using a nonlinear least-squares fit in Origin 8.1 software (OriginLab, Northampton, MA). The reaction rate (v) at a given substrate concentration ([S]) was calculated according to the following equations: […]
(§4) To determine the apparent inhibition constants (Ki,app) for β-lactams and BLIs, the following experimental condition was employed: NCF as a substrate at a concentration of 5 × Km, LDT/ PBP enzymes with fixed concentration, and β-lactams and BLIs with various concentrations. Changes in absorbance at 482 nm were measured over a period of 0–30 min for each concentration of β-lactams and BLIs. Data were linearized using a Dixon plot, plotting the inverse changes in absorbance (1/ΔA) against the concentrations of β-lactams and BLIs. The observed Ki,app was determined directly from the Dixon plot, and these values were corrected for substrate concentration and affinity for the LDT using the following equation:
(§5) Ki,app=observed Ki,app/1+[NCF]/Km NCF

Assay [2] addresses T1, LDT2. Description: Steady-state kinetics with nitrocefin (Ki,app). The assay is classed as biochemical. The following applies: for Ki: Ki,app LDT2, nitrocefin at 5 × Km; for Ratio of fCss,avg to Ki,app, LDT2: in parentheses in Table 3. The protocol:
as §3, §4, §5

For another assay, the target named is LDT4 (Mycobacterium abscessus, UniProt B1MKW1). As to the kind of experiment: Steady-state kinetics with nitrocefin (Ki,app). It counts as biochemical. The following applies: in parentheses in Table 3. The procedure: as §3, §4, §5
Sequence of LDT4 (B1MKW1 entry or part of it): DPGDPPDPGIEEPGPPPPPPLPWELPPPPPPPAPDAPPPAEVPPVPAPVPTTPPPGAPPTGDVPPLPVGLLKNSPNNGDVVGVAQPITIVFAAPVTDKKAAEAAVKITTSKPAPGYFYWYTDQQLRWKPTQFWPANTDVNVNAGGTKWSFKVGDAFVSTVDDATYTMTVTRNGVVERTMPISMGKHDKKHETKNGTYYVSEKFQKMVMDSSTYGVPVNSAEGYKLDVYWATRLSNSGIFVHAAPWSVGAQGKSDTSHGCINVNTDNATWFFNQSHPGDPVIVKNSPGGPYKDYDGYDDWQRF
The target in another assay is LDT5 (Mycobacterium abscessus, UniProt B1MM58). Description: Steady-state kinetics with nitrocefin (Ki,app). It counts as biochemical. The following applies: in parentheses in Table 3. The procedure: as §3, with “Increasing concentrations of NCF (Δε482 = 17,400 M^⁻¹ cm^⁻¹) were used, while fixed concentrations of the LDTs and PBPs were monitored for changes in absorbance at 482 nm over a time period of 0 to 10 min.” left out
Sequence of LDT5 (B1MM58 entry or part of it): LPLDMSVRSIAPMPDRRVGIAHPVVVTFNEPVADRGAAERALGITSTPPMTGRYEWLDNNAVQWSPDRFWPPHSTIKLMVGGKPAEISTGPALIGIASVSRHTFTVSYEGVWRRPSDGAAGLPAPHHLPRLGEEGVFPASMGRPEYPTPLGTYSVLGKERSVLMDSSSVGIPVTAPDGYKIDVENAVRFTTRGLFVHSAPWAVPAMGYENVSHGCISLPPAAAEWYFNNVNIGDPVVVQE
Changes in absorbance at 482 nm were measured over a period of 0–30 min for each concentration of β-lactams and BLIs. Data were linearized using a Dixon plot, plotting the inverse changes in absorbance (1/ΔA) against the concentrations of β-lactams and BLIs. The observed Ki,app was determined directly from the Dixon plot, and these values were corrected for substrate concentration and affinity for the LDT using the following equation:
as §5

Another assay deals with BlaMab (Mycobacterium abscessus, UniProt B1MCI3). As to the kind of experiment: Ki,app for the β-lactamase. The assay is classed as biochemical.
Sequence of BlaMab (B1MCI3 entry or part of it): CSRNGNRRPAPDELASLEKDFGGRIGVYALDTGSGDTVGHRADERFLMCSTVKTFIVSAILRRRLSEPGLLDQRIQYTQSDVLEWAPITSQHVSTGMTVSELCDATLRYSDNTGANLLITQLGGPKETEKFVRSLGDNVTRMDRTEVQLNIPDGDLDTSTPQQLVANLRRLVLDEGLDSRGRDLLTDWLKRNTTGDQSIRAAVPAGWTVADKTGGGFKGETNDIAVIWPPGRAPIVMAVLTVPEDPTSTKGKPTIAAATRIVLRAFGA
Where [3] appears, read: read-out: Ki,app BlaMab (converted).

T1 sequence (B1MMQ4 entry or part of it): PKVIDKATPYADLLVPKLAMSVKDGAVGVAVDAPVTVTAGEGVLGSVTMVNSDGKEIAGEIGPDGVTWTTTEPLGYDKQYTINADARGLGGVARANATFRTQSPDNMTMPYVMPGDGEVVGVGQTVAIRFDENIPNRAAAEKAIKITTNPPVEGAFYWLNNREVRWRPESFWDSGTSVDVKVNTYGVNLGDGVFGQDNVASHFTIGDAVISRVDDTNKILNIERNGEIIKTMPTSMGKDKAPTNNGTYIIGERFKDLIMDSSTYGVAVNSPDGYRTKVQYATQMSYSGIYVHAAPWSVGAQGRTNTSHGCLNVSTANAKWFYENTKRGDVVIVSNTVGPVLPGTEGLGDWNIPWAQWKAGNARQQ
Sequence of LDT1 (B1MDC1 entry or part of it): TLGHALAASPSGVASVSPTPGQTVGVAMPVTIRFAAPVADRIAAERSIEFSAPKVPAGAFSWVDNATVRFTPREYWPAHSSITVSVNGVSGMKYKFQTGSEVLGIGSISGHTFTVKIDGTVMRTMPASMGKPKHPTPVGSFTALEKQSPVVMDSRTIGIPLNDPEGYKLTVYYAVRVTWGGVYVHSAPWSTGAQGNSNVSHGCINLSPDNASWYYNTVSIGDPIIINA
Sequence of PBP B (B1MP31 entry or part of it): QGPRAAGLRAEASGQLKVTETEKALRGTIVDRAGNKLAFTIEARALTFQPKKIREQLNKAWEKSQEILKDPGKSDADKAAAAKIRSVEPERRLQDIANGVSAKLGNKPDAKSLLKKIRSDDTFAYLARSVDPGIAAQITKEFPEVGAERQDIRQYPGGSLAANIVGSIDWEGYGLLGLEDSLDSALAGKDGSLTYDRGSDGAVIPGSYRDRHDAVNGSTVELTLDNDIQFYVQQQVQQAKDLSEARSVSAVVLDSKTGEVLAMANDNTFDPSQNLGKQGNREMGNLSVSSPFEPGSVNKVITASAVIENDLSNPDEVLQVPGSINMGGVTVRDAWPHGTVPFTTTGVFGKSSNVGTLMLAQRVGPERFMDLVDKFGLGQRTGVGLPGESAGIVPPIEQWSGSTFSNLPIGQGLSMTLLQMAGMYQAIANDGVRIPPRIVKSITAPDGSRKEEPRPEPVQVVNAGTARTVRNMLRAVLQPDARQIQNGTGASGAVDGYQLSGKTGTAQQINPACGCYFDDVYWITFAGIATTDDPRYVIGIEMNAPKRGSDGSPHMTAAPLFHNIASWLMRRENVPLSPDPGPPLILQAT

Consider `C[C@@H](O)[C@H]1C(=O)N2C(C(=O)O)=C(SCCN=CN)C[C@H]12` [Imipenem, imipenem], for which the “Observed MW (+ change in mw), PBP B (62,915)” value on PBP B is listed as 63,215 (+300) Da. For the same compound, the “Observed MW (+ change in mw), LDT2 (39,216)” value on LDT2 [1] is 39,515 (+299) Da. In addition, the “Observed MW (+ change in mw), LDT3 (44,795)” value at LDT3 is given as 44,794 (−) Da. Moreover, the Ki at LDT1 was 6.68 nM; at LDT2 [2], 6.68 nM; on BlaMab (setting [3]) it was 17000 nM. Besides, the “Ratio of fCss,avg to Ki,app, LDT1” value on LDT1 is 5714. In addition, the “Ratio of fCss,avg to Ki,app, LDT2” value at LDT2 [2] was 6667. For the same compound, the “Ratio of fCss,avg to Ki,app, LDT4” value on LDT4 was 3. Further, the “Ratio of fCss,avg to Ki,app, LDT5” value at LDT5 was 0.4.
On to `CC1(C)S[C@@H]2[C@H](NC(=O)[C@H](N)c3ccc(O)cc3)C(=O)N2[C@H]1C(=O)O` [Amoxicillin, amoxicillin], for which the “Observed MW (+ change in mw), PBP B (62,915)” value on PBP B was 63,280 (+365) Da. The “Observed MW (+ change in mw), LDT3 (44,795)” value at LDT3 was 44,794 (−) Da. Also, at BlaMab (read-out: Ki,app BlaMab), the Ki was < 13700 nM.
Turning to `NC(=O)[C@@H]1CC[C@@H]2CN1C(=O)N2OS(=O)(=O)O` [Avibactam, avibactam], on PBP B, the “Observed MW (+ change in mw), PBP B (62,915)” value is 63,180 (+265) Da. Besides, the “Observed MW (+ change in mw), LDT2 (39,216)” value on LDT2 [1] is on record as 39,482 (+266) Da. Also, on LDT3, the “Observed MW (+ change in mw), LDT3 (44,795)” value is on record as 44,794 (−) Da. Moreover, at LDT1, the Ki is 26400 nM and the “Ratio of fCss,avg to Ki,app, LDT1” value stood at 0.7. On LDT2 [2], the Ki was 1700 nM and the “Ratio of fCss,avg to Ki,app, LDT2” value is given as 11. Also, at LDT4, the “Ratio of fCss,avg to Ki,app, LDT4” value is < 0.02. For the same compound, the Ki on BlaMab (setting [3]) is 300 nM.
`C[C@@H](O)[C@H]1C(=O)N2C(C(=O)O)=C(SC3CN(C4=NCCS4)C3)[C@H](C)[C@H]12` [Tebipenem, tebipenem]: the “Observed MW (+ change in mw), LDT2 (39,216)” value on LDT2 [1] is 39,602 (+386) Da. Further, the “Observed MW (+ change in mw), LDT3 (44,795)” value on LDT3 is recorded as 44,794 (−) Da. On LDT1, the Ki is 4950 nM and the “Ratio of fCss,avg to Ki,app, LDT1” value came out at 0.9. For the same compound, on LDT2 [2], the Ki is 26.1 nM and the “Ratio of fCss,avg to Ki,app, LDT2” value is reported as 170. For the same compound, the “Ratio of fCss,avg to Ki,app, LDT4” value on LDT4 is listed as 2.4. Also, the Ki on BlaMab (setting [3]) is < 13000 nM.
As for `CC1=C[C@@H]2CN(C(=O)N2OS(=O)(=O)O)[C@@H]1C(N)=O` [Durlobactam, durlobactam], the “Observed MW (+ change in mw), PBP B (62,915)” value at PBP B was 63192 (+277) Da. Besides, at LDT2 [1], the “Observed MW (+ change in mw), LDT2 (39,216)” value was 39,492 (+278) Da. Also, the “Observed MW (+ change in mw), LDT3 (44,795)” value on LDT3 is given as 44,794 (−) Da. Moreover, the Ki at LDT1 is 418000 nM; at BlaMab (setting [3]), 3.97 nM. In addition, at LDT1, the “Ratio of fCss,avg to Ki,app, LDT1” value is recorded as 0.1. In addition, the “Ratio of fCss,avg to Ki,app, LDT4” value at LDT4 is reported as 6. For the same compound, on LDT5, the “Ratio of fCss,avg to Ki,app, LDT5” value amounted to 145.
`C[C@@H](O)[C@H]1C(=O)N2C(C(=O)O)=C(S[C@H]3CC[S@@+]([O-])C3)S[C@H]12` [Sulopenem, sulopenem]: the “Observed MW (+ change in mw), PBP B (62,915)” value at PBP B is 63,264 (+349) Da. Besides, the “Observed MW (+ change in mw), LDT2 (39,216)” value at LDT2 [1] was 39,298 (+86) Da. For the same compound, the “Observed MW (+ change in mw), LDT3 (44,795)” value at LDT3 is 45,143 (+349) Da. Further, on LDT2 [2], the Ki was 200 nM and the “Ratio of fCss,avg to Ki,app, LDT2” value is reported as 29. Further, at LDT4, the “Ratio of fCss,avg to Ki,app, LDT4” value is 1.1. Moreover, the “Ratio of fCss,avg to Ki,app, LDT5” value on LDT5 stood at 1.5.
Turning to `CO/N=C(\C(=O)N[C@@H]1C(=O)N2C(C(=O)O)=C(COC(N)=O)CS[C@H]12)c1ccco1` [Cefuroxime, cefuroxime], on PBP B, the “Observed MW (+ change in mw), PBP B (62,915)” value was 63,279 (+364) Da. For the same compound, the “Observed MW (+ change in mw), LDT2 (39,216)” value at LDT2 [1] was 39,597 (+381) Da. The “Observed MW (+ change in mw), LDT3 (44,795)” value at LDT3 was 44,794 (−) Da. In addition, at LDT2 [2], the Ki is 1180 nM and the “Ratio of fCss,avg to Ki,app, LDT2” value was 24. Besides, the “Ratio of fCss,avg to Ki,app, LDT5” value on LDT5 was determined as 7.5.
